Measurements: publication PMC10780910, “Opioid/Dopamine Receptor Binding Studies, NMR and Molecular Dynamics Simulation of LENART01 Chimera, an Opioid-Bombesin-like Peptide” (Molecules, 2024)

Experiments:
[1] = test system: opioid and dopamine receptors; experiment: Functional [35S]GTPγS binding, brain membrane; type: biochemical, rat (Wistar); settings: for Emax ± S.E.M., ligand alone: Tris-EGTA pH 7.4, 0.05 nM [35S]GTPγS; for Emax ± S.E.M., Ligand + Cyprodime: opioid system, + cyprodime (selective MOR antagonist), *** p < 0.001 vs ligand alone (unpaired t-test); for Emax ± S.E.M., Ligand + Risperidone: + risperidone (selective D2R antagonist), *** p < 0.001 vs ligand alone
Protocol: (§1) Both male and female Wistar rats were used for membrane preparations (brains and spinal cords). Animals were housed at 22 ± 0.5 °C with a 12:12 h light–dark cycle. Food and water were available ad libitum. All animal manipulations were carried out according to the European Communities Council Directives ([…]) and the Hungarian Act for the Protection of Animals in Research (XXVIII.tv. 32.§).
(§2) The functional [^35S]GTPγS binding experiments were performed as previously described. In brief, the brain and spinal cord homogenates were incubated at 30 °C for 60 min in Tris-EGTA buffer (pH 7.4) containing [^35S]GTPγS (0.05 nM) and in the presence of varying concentrations of the ligand. Non-specific binding was determined in the presence of non-radiolabeled 10 μM GTPγS. The reaction was stopped by rapid filtration under vacuum (Brandel M24R Cell Harvester), and the samples were washed with cold Tris-HCl buffer. The radioactivity of the dried filters was determined by scintillation counting.

[2] = test system: opioid and dopamine receptors; experiment: Functional [35S]GTPγS binding, spinal cord membrane; type: biochemical, rat (Wistar); settings: for Emax ± S.E.M., ligand alone / Emax ± S.E.M., Ligand + Cyprodime / Emax / Emax ± S.E.M., Ligand + Risperidone: rat spinal cord membrane, 30 °C, 60 min; for Emax ± S.E.M., ligand alone: Tris-EGTA pH 7.4, 0.05 nM [35S]GTPγS; for Emax ± S.E.M., Ligand + Cyprodime: opioid system, + cyprodime (selective MOR antagonist); for Emax ± S.E.M., Ligand + Cyprodime / Emax / Emax ± S.E.M., Ligand + Risperidone: pH 7.4; for Emax ± S.E.M., Ligand + Cyprodime / Emax ± S.E.M., Ligand + Risperidone: *** p < 0.001 vs ligand alone; for Emax / Emax ± S.E.M., Ligand + Risperidone: dopaminergic system; for Emax: + SCH-39166 (selective D1R antagonist), ns vs ligand alone, read-out: Emax ± S.E.M., Ligand + SCH-39166; for Emax ± S.E.M., Ligand + Risperidone: + risperidone (selective D2R antagonist)
Protocol: as §1, §2

D2R = experiment: Competitive [3H]Spiperone binding (D2R); design: species or system rat (Wistar); settings: rat brain and spinal cord homogenates
Text: (§3) The chimeric peptide LENART01 was examined in [^3H]DAMGO, [^3H]SCH−23390 and [^3H]Spiperone homolog displacement in rat brains and spinal cord homogenates. The binding affinity of the hybrid and its intrinsic activity value were compared with dermorphin and ranatensin, its structural components.
(§4) Figure 3 Binding affinity of LENART01 at MOR (A,B), D1R (C,D) and D2R (E,F) receptors, respectively, using [^3H]DAMGO and [^3H]SCH−23390 and [^3H]Spiperone as radioligands. Results represent mean ± SEM of 3 independent experiments, each performed in duplicate.
as §1
(§5) Competitive analysis of the chimera activity was performed in the presence of naloxone (in case of MOR displacement studies) or SCH-23390 (for D1R) and spiperone (for D2R). […] The radioactivity of the dried filters was detected using an UltimaGold^TM MV aqueous scintillation cocktail with a Packard Tricarb 2300TR liquid scintillation counter. […]

MOR = experiment: Competitive [3H]DAMGO binding (MOR); design: species or system rat (Wistar); settings: receptor binding assay, rat brain and spinal cord homogenates
Text: as §3, §4, §1, §5

E. coli strains = settings: different E. coli strains; cited from earlier work
Text: (§6) Noteworthily, the N-terminal pharmacophore of LENART01 consists of dermorphin with an amino acid sequence of YdAFGYPS. At the same time, the C-terminus was constructed from ranatensin, which was additionally heavily modified, resulting in a sequence of GHFM.

[3] = test system: dopamine D2 receptor (D2R); settings: cited from earlier work
Text: as §6

dopaminergic receptors = settings: ref Zhu et al. 10; cited from earlier work
[4] = rat brain membrane, 30 °C, 60 min
[5] = rat brain membrane, 30 °C, 60 min, pH 7.4
[6] = rat brain membrane, dopaminergic system, 30 °C, 60 min, pH 7.4

In the case of “YdAFGYPS [dermorphin, reference compound]”, the “Emax ± S.E.M., ligand alone” value [1, 4] is reported as 140.5 ± 2.9%, the “Emax ± S.E.M., Ligand + Cyprodime” value [1, 5] is reported as 100.0 ± 1.1 *** % and the “Emax ± S.E.M., ligand alone” value [2] is reported as 140.0 ± 1.8%. The “Emax ± S.E.M., Ligand + Cyprodime” value [2] was 100.4 ± 0.9 *** %.
With YdAFGYPSGHFM [LENART01] the Emax ([1]; rat brain membrane, dopaminergic system, + SCH-39166 (selective D1R antagonist), 30 °C, 60 min, pH 7.4, ns for chimera, *** p < 0.001 for ranatensin, read-out: Emax ± S.E.M., Ligand + SCH-39166) was 140.8 ± 0.8%, the “Emax ± S.E.M., Ligand + Risperidone” value [1, 6] was 101.1 ± 0.7 *** % and the “Emax ± S.E.M., ligand alone” value [1, 4] was 140.6 ± 1.0%. For the same substance, the “Emax ± S.E.M., Ligand + Cyprodime” value [1, 5] was 100.4 ± 1.4 *** %, the “dose-dependent increases in functional binding vs dermorphin” value ([1]; rat brain membranes, [35S]GTPγS) was “equal to the increases in dermorphin” and the “effect of SCH−39166 on efficacy” value ([1]; selective D1R antagonist SCH−39166, tissue not specified) was “did not significantly reverse the efficacy”. For the same substance, the “effect of risperidone on stimulation” value ([1]; selective D2R antagonist risperidone, tissue not specified) was “brought down the stimulation of LENART01 to basal activity”, the “effect of cyprodime on efficacy” value ([1]; selective MOR antagonist cyprodime, tissue not specified) was “reversed the efficacy” and the “selectivity to D2R compared to D1R” value (D2R; [3H]Spiperone (D2R) vs [3H]SCH-23390 (D1R), Tris-HCl pH 7.4, 3 independent experiments in duplicate) was “high selectivity to D2R compared to D1R”. The “binding to dopamine receptors” value (D2R; receptor binding assay in vitro, abstract statement) was “bound to mu-opioid and dopamine receptors”, the Emax [2] was 136 ± 1.7% and the “Emax ± S.E.M., Ligand + Risperidone” value [2] was 101.6 ± 1.2 *** %. For the same substance, the “Emax ± S.E.M., ligand alone” value [2] was 136.3 ± 2.2%, the “Emax ± S.E.M., Ligand + Cyprodime” value [2] was 100.8 ± 1.1 *** % and the “maximal stimulation vs dermorphin” value ([2]; spinal cord membrane, [35S]GTPγS) was “less than that of dermorphin”. For the same substance, the “binding to MOR” value (MOR) was “bound to mu-opioid and dopamine receptors” and the antimicrobial activity (E. coli strains) was “antimicrobial activity against different E. coli strains”.
In the case of ranatensin [reference compound], the “Emax ± S.E.M., Ligand + SCH-39166” value ([1]; rat brain membrane, dopaminergic system, + SCH-39166 (selective D1R antagonist), 30 °C, 60 min, pH 7.4, ns for chimera, *** p < 0.001 for ranatensin) is reported as 119.1 ± 0.8 *** %, the “Emax ± S.E.M., Ligand + Risperidone” value [1, 6] is reported as 101.5 ± 1.7 *** % and the “Emax ± S.E.M., ligand alone” value [1, 4] is reported as 124.1 ± 1.9%. For the same substance, the Emax [2] was 117.4 ± 1.1%, the “Emax ± S.E.M., Ligand + Risperidone” value [2] was 100.0 ± 0.7 *** % and the “Emax ± S.E.M., ligand alone” value [2] was 119.8 ± 1.3%. The “binding to MOR” value (MOR) was “did not bind to MOR”, the “interaction with D2R” value [3] was “known to interact with” and the “analgesia and naloxone antagonism” value (dopaminergic receptors) was “naloxone failed to antagonize the pain-relieving effect”.
